Measurements from PMC4459817, “Vasculotide reduces endothelial permeability and tumor cell extravasation in the absence of binding to or agonistic activation of Tie2” (EMBO Molecular Medicine, 2015).
“Also recorded” adds a separate entry of the source.

Tested on: LM2-4luc lymphatic metastases in SCID mice
Assay: experimental LM2-4luc lymphatic metastasis model (IV)
Format: in vivo, human LM2-4luc cells in CB-17 SCID mice
Settings: n = 12; for progression of lymphatic metastases (bioluminescence): VT 250 ng/2d, SU pretreatment, Kruskal–Wallis, Fig2F–H
Excerpt: (C and G) Photographs of typical metastases in the lungs and caudal lymphatics, respectively. […] Geometric means ± 95%CI are depicted in (D and H); P values were derived by one-way ANOVA (D) and Kruskal–Wallis test (H). […] TEXT PRINTED IN THE PICTURE: (A) Vasculotide (VT): Hazard ratio = 0.13 (95% CI, 0.03 to 0.63) | (A) SU+VT: Hazard ratio = 0.19 (95% CI, 0.04 to 0.81) DOUBTS OF THE COPYIST ABOUT THIS PICTURE: Vasculotide (VT), Hazard ratio: small print; 0.13 could be 0.15 or 0.18, and the CI limits 0.03 and 0.63 are uncertain in the digits 3/5/6/8 / SU+VT, Hazard ratio: small print; 0.19 could be 0.18 or 0.16, and the CI limits 0.04 and 0.81 are uncertain in the digits / Panel A: each hazard ratio is printed under a pair of legend entries (Vehicle / Vasculotide (VT), and Sunitinib (SU) / SU+VT). Assigning it to the VT-treated arm of each pair is my assumption.
In vivo experiments were performed in strict accordance with protocols approved by the Sunnybrook Research Institute Animal Care Committee, accredited by the Canadian Council of Animal Care. All surgical, imaging, and euthanasia procedures were performed under inhaled isoflurane anesthesia. Experimental metastasis models involved injections of 10^6 tumor cells, suspended in 200 μl serum-free DMEM, into the mouse tail vein. LM2-4^luc implantations were performed on 6 to 8-week-old female CB-17 SCID mice (Charles River Canada). […]
For in vivo BI: Mice were injected intraperitoneally with 150mg/kg luciferin (Promega) 10 minutes prior to and anesthetized with isofluorane just before luminescent pseudocolor imaging (uniform settings: CCD camera locked at -105 °C, exposure=60s, f/1, subject size=1.5cm, bin=8, FOV=23.2cm, full image correction) using the IVIS 200 Imaging System (Caliper/PerkinElmer). Using the Living Image software (v2.50.1, Xenogen), weekly images were analyzed under uniform color range on grayscale photographic overlay. Total fluxes (photons/sec) were quantified within consistent regions of interest and statistically compared ideally at a timepoint before any deaths have occurred. […]

Row | Compound | progression of lymphatic metastases (bioluminescence) (listed as SU) | progression of lymphatic metastases (bioluminescence) | survival rates (VT, Fig2E, listed as VT)
1 | CCN(CC)CCNC(=O)c1c(C)[nH]c(/C=C2\C(=O)Nc3ccc(F)cc32)c1C [sunitinib, reference compound] | did not similarly promote lymphatic metastases; also recorded: did not accelerate their progression |  | 
2 | CHHHRHSF [Vasculotide, 4-armed maleimide-functionalized polyethylene glycol (PEG) backbone to link together four cysteine-capped T7 peptides, that is, CHHHRHSF] |  | no significant effect on survival rates (Fig2E) or the progression of lymphatic metastases | no significant effect on survival rates
